Assay results published in patent US20100022584A1, “Modulation of Glutamine Synthetase Activity” (priority 2006, published 2010).
Numbering of substitutions follows the chain as printed. Entries after “also recorded” stand apart in the source; their conditions may differ.

Legend:
[1] = target: T1, adenylylated WT enzyme, WT (AD) glutamine synthetase (Escherichia coli, UniProt P0A9C5); assay: HPLC forward-reaction glutamine synthetase assay with serine protease inhibitors; format: biochemical, E. coli; details: 1 mM inhibitor; for % Reduction in ADP-based Specific Activity / % Reduction in Glutamine-based Specific Activity / % Conversion: WT (AD); for % Reduction in ADP-based Specific Activity / % Reduction in Glutamine-based Specific Activity: 60 min pre-incubation, vs no-inhibitor control, positive = activity increased; for % Conversion: glutamine-based divided by ADP-based specific activity; for inhibition of the enzyme (in words): adenylylated WT enzyme, HPLC assays
T1 construct: made in house; host or cells: E. coli carrying pBSK-ECgln (pBluescript II SK+), continuous culture; YMC11 is the expression strain named for this plasmid
T1 sequence (P0A9C5 2-469 limits assumed): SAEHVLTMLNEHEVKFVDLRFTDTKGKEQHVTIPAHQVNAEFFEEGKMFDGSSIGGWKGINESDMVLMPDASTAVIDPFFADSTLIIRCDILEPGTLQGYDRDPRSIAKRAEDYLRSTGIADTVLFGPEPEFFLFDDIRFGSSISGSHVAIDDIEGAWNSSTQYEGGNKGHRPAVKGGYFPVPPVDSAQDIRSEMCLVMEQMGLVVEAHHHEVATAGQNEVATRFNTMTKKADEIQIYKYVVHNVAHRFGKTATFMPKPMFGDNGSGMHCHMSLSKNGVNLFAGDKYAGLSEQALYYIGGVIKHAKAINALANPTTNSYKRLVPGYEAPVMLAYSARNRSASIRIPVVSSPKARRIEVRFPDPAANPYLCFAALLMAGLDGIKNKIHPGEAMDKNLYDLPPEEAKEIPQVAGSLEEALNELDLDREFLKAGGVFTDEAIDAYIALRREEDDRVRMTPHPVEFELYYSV
Experimental: (§1) This assay was set up to measure glutamine synthetase activity according to the forward reaction, and measures the amount of glutamine formed from […] of L-glutamate in the presence of MnCO3-ATP (the basis of one reaction) and MgATP (the basis of a second reaction). In addition, the amount of ADP formed is also measured in a separate assay, using the same reagents.
(§2) All enzyme preparations were adjusted to the same concentration of protein, and added to the assay mixture in a volume of 50 μl. The addition of the enzyme started the reaction, which was then allowed to proceed for 1 hour. The reaction was stopped by the addition of 6 μl of a 50% solution of trichloroacetic acid. Each assay was then aliquoted into 4 HPLC vials (150 μl per vial), two of which were assayed for glutamate and glutamine using a Phenomenex Luna 5 μC18 Column on an Agilent 100 HPLC instrument. The ATP/ADP assays were run on a Chromolith Performance RP-18c column also using an Agilent 100 HPLC instrument.
(§3) As it is believed that two putative catalytic triads, similar to those in the serine proteases, are involved in the reaction mechanism of glutamine synthetase, certain of the mutants were also assayed by HPLC in the presence of the serine protease inhibitors, AEBSF and PMSF, in order to assess the effect that these inhibitors had on the enzyme. The enzymes assessed were the adenylylated WT enzyme, the deadenylylated WT enzyme, and the mutant enzymes S52A, S52A Y397V, S53A, S53A Y397V, S52A S53A and S52A S53A Y397V. The enzymes were pre-incubated for 60 minutes in the presence of 1 mM PMSF or 1 mM AEBSF. A control reaction was set up for each enzyme, which contained no inhibitor. Each enzyme was then added to assays set up as described above. The assay was allowed to proceed for 60 minutes, then stopped by the addition of […] of 50% TCA, after which they were analysed by HPLC. All assays were run in triplicate.
(§4) In addition to the γ-glutamyl transferase assays, assays were also developed to measure the rate of conversion of ATP and glutamate to ADP and glutamine by HPLC. These were set up as single assays but analysed separately for glutamate and glutamine and ATP and ADP. The conversion rates for glutamate to glutamine, in both the presence of Mn^2+ and Mg^2+ by glutamine synthetase, is referred to as the […] specific activity and is presented in μmoles/min/mg protein. The conversion rates for ATP to ADP, in both the presence of Mn^2+ and Mg^2+ by glutamine synthetase, is referred to as the ADP-based specific activity and is presented in μmoles/min/mg protein. The percentage of conversion was also calculated by dividing the glutamine-based specific activity by the ADP-based specific activity, and this value is interpreted as the ability of the enzyme to complete both steps of the reaction, i.e., glutamate to glutamine and ATP to ADP, at an equivalent level of efficiency.

[2] = target: T2, glutamine synthetase mutant S52A S53A (Escherichia coli, UniProt P0A9C5, S53A/S54A); assay: as above; format: biochemical, E. coli; details: 1 mM inhibitor; for % Reduction in ADP-based Specific Activity / % Reduction in Glutamine-based Specific Activity / % Conversion: S52A S53A; for % Reduction in ADP-based Specific Activity / % Reduction in Glutamine-based Specific Activity: 60 min pre-incubation, vs no-inhibitor control, positive = activity increased; for % Conversion: glutamine-based divided by ADP-based specific activity
T2 construct: made in house; host or cells: E. coli YMC11 (glutamine synthetase auxotroph), pBluescript II SK+
T2 sequence (P0A9C5 2-469 S53A/S54A limits assumed): T1 sequence (P0A9C5 2-469 limits assumed) with S52A, S53A
Experimental: as §1, §2, §3, §4

Structure (SMILES) | % Reduction in ADP-based Specific Activity ([1]; Mg assay) | % Reduction in Glutamine-based Specific Activity ([1]; Mg assay) [%] | % Conversion ([1]; Mg assay) [%] | % Reduction in ADP-based Specific Activity ([1]; Mn assay) [%] | % Reduction in Glutamine-based Specific Activity ([1]; Mn assay) [%] | % Conversion ([1]; Mn assay) [%] | inhibition of the enzyme (in words) [1] | % Reduction in ADP-based Specific Activity ([2]; Mg assay) [%] | % Reduction in Glutamine-based Specific Activity ([2]; Mg assay) [%] | % Conversion ([2]; Mg assay) [%] | % Reduction in ADP-based Specific Activity ([2]; Mn assay) [%] | % Reduction in Glutamine-based Specific Activity ([2]; Mn assay) [%] | % Conversion ([2]; Mn assay) [%] | inhibition of the enzyme (in words) ([2]; S52A S53A (double serine mutant), HPLC assays)
NCCc1ccc(S(=O)(=O)F)cc1 [AEBSF] | −34.60% | −24.59 | 134 | −26.76 | −14.86 | 118 | appeared to cause inhibition | −41.91 | −17.82 | 115 | −16.20 | −7.69 | 98 | 
O=S(=O)(F)Cc1ccccc1 [PMSF] | +48.13% | −46.33 | 42 | −15.63 | −49.20 | 61 | found to inhibit | −23.74 | −23.24 | 82 | −13.56 | −16.92 | 85 | did not significantly inhibit; also recorded: not significantly inhibited
